{
  "source": "ChEMBL document CHEMBL1143399",
  "about": "“A small-molecule nitroimidazopyran drug candidate for the treatment of tuberculosis” (Nature, 2000)",
  "key": {"[1]": {"system": "Mycobacterium tuberculosis", "test": "Antimycobacterial activity against pan-susceptible Mycobacterium tuberculosis TN1037", "assay_type": "functional"}, "[2]": {"system": "Mycobacterium tuberculosis", "test": "Antimicrobial activity against log phase recombinant Mycobacterium tuberculosis H37Rv-lux with plasmid MV361 at 10 ug/ml incubated for 7 days assessed as bacterial count after 4 days", "assay_type": "functional"}, "[3]": {"system": "Mycobacterium tuberculosis", "test": "Antimicrobial activity against log phase recombinant Mycobacterium tuberculosis H37Rv-lux with plasmid MV361 at 10 ug/ml incubated for 7 days assessed as bacterial count", "assay_type": "functional"}, "[4]": {"system": "Mycobacterium tuberculosis", "test": "Antimycobacterial activity against pan-susceptible Mycobacterium tuberculosis H37Rv", "assay_type": "functional"}, "[5]": {"system": "Mycobacterium tuberculosis", "test": "Antimycobacterial activity against pan-susceptible Mycobacterium tuberculosis TN913", "assay_type": "functional"}, "[6]": {"system": "Mycobacterium tuberculosis", "test": "Antimycobacterial activity against pan-susceptible Mycobacterium tuberculosis TN1008", "assay_type": "functional"}, "[7]": {"system": "Mycobacterium tuberculosis", "test": "Antimycobacterial activity against pan-susceptible Mycobacterium tuberculosis TN1040", "assay_type": "functional"}, "[8]": {"system": "Mycobacterium tuberculosis", "test": "Antimycobacterial activity against pan-susceptible Mycobacterium tuberculosis TN1051", "assay_type": "functional"}, "[9]": {"system": "Mycobacterium tuberculosis", "test": "Antimycobacterial activity against pan-susceptible Mycobacterium tuberculosis TN1082", "assay_type": "functional"}, "[10]": {"system": "Mycobacterium tuberculosis", "test": "Antimycobacterial activity against pan-susceptible Mycobacterium tuberculosis TN2351", "assay_type": "functional"}, "[11]": {"system": "Mycobacterium tuberculosis", "test": "Antimycobacterial activity against pan-susceptible Mycobacterium tuberculosis TN2524", "assay_type": "functional"}, "[12]": {"system": "Mycobacterium tuberculosis", "test": "Antimycobacterial activity against pan-susceptible Mycobacterium tuberculosis TN3183", "assay_type": "functional"}, "[13]": {"system": "Mycobacterium tuberculosis", "test": "Antimycobacterial activity against pan-susceptible Mycobacterium tuberculosis TN3979", "assay_type": "functional"}, "[14]": {"system": "Mycobacterium tuberculosis", "test": "Antimycobacterial activity against pan-susceptible Mycobacterium tuberculosis TN4259", "assay_type": "functional"}, "[15]": {"system": "Mycobacterium tuberculosis", "test": "Antimycobacterial activity against Mycobacterium tuberculosis clinical isolate IS6110 infected in mouse at 25 mg/kg, po", "assay_type": "functional, organism-based", "set-up": "dose 25 mg/kg"}, "[16]": {"system": "Mycobacterium tuberculosis", "test": "Antimycobacterial activity against Mycobacterium tuberculosis H37Rv with plasmid MH102 infected in BALB/c mouse assessed as reduction in mycobacterial burden in spleen at 25 mg/kg, po daily after 4 days of infection for 10 days relative to isoniazid", "assay_type": "functional, organism-based", "set-up": "dose 25 mg/kg"}, "[17]": {"system": "Mycobacterium tuberculosis", "test": "Antimycobacterial activity against Mycobacterium tuberculosis H37Rv with plasmid MH102 infected in BALB/c mouse assessed as reduction in mycobacterial burden in lung at 25 mg/kg, po daily after 4 days of infection for 10 days relative to isoniazid", "assay_type": "functional, organism-based", "set-up": "dose 25 mg/kg"}, "[18]": {"system": "Mycobacterium tuberculosis", "test": "Antimycobacterial activity against Mycobacterium tuberculosis H37Rv with plasmid MH102 infected in BALB/c mouse assessed as reduction in mycobacterial burden in lung at 50 mg/kg, po daily after 4 days of infection for 7 to 60 days relative to isoniazid", "assay_type": "functional, organism-based", "set-up": "dose 50 mg/kg"}, "[19]": {"system": "Mycobacterium tuberculosis", "test": "Antimycobacterial activity against Mycobacterium tuberculosis H37Rv with plasmid MH102 infected in BALB/c mouse assessed as reduction in mycobacterial burden in lung at 100 mg/kg, po daily after 4 days of infection for 7 to 60 days relative to isoniazid", "assay_type": "functional, organism-based", "set-up": "dose 100 mg/kg"}, "[20]": {"system": "Mycobacterium tuberculosis", "test": "Antimycobacterial activity against Mycobacterium tuberculosis H37Rv ATCC 27294 infected in Hartley guinea pig assessed as reduction in mycobacterial burden in lung at 40 mg/kg, po daily after 30 days of infection for 30 days relative to isoniazid", "assay_type": "functional, organism-based", "set-up": "dose 40 mg/kg"}, "[21]": {"system": "Mycobacterium tuberculosis", "test": "Antimycobacterial activity against Mycobacterium tuberculosis H37Rv ATCC 27294 infected in Hartley guinea pig assessed as reduction in mycobacterial burden in spleen at 40 mg/kg, po daily after 30 days of infection for 30 days relative to isoniazid", "assay_type": "functional, organism-based", "set-up": "dose 40 mg/kg"}, "Mus musculus [22]": {"system": "Mus musculus", "test": "Acute toxicity in Mycobacterium tuberculosis H37Rv infected BALB/c mouse at >1000 mg/kg, po single dose", "assay_type": "organism-based", "conditions": "in vivo"}, "Mus musculus [23]": {"system": "Mus musculus", "test": "Chronic toxicity in Mycobacterium tuberculosis H37Rv infected BALB/c mouse at >500 mg/kg, po for 28 days", "assay_type": "organism-based", "conditions": "in vivo, 672 h"}},
  "note": "Activity calls are given as the source filed them. No cut-off for these calls is given here.",
  "data": [
    {"smiles": "NNC(=O)c1ccncc1", "note": "[ISONIAZID]", "values": [
      {"measurement": "MIC", "setting": "[1]", "result": 0.03, "unit": "µg/mL"},
      {"measurement": "log10cfu", "setting": "[2]", "result": 1},
      {"measurement": "log10cfu", "setting": "[3]", "result": 1.4},
      {"measurement": "MIC", "setting": "[4]", "result": 0.03, "unit": "µg/mL"},
      {"measurement": "MIC", "setting": "[5]", "result": 0.03, "unit": "µg/mL"},
      {"measurement": "MIC", "setting": "[6]", "result": 0.06, "unit": "µg/mL"},
      {"measurement": "MIC", "setting": "[7]", "result": 0.03, "unit": "µg/mL"},
      {"measurement": "MIC", "setting": "[8]", "result": 0.03, "unit": "µg/mL"},
      {"measurement": "MIC", "setting": "[9]", "result": 0.03, "unit": "µg/mL"},
      {"measurement": "MIC", "setting": "[10]", "result": 0.06, "unit": "µg/mL"},
      {"measurement": "MIC", "setting": "[11]", "result": 0.06, "unit": "µg/mL"},
      {"measurement": "MIC", "setting": "[12]", "result": 0.03, "unit": "µg/mL"},
      {"measurement": "MIC", "setting": "[13]", "result": 0.06, "unit": "µg/mL"},
      {"measurement": "MIC", "setting": "[14]", "result": 0.03, "unit": "µg/mL"}
    ]},
    {"smiles": "CCC1Cn2cc([N+](=O)[O-])nc2O1", "note": "(stereo unspecified)", "values": [
      {"measurement": "log10cfu", "setting": "[2]", "result": 1.5},
      {"measurement": "log10cfu", "setting": "[3]", "result": 1.8}
    ]},
    {"smiles": "O=[N+]([O-])c1cn2c(n1)OC[C@@H](OCc1ccc(OC(F)(F)F)cc1)C2", "note": "[PRETOMANID]", "values": [
      {"measurement": "Activity", "setting": "[15]", "result": "Active"},
      {"measurement": "Activity", "setting": "[16]", "result": "Active"},
      {"measurement": "Activity", "setting": "[17]", "result": "Active"},
      {"measurement": "Activity", "setting": "[18]", "result": "Active"},
      {"measurement": "Activity", "setting": "[19]", "result": "Active"},
      {"measurement": "Activity", "setting": "[20]", "result": "Active"},
      {"measurement": "Activity", "setting": "[21]", "result": "Active"},
      {"measurement": "Activity", "setting": "Mus musculus [22]", "result": "Toxic"},
      {"measurement": "Activity", "setting": "Mus musculus [23]", "result": "Toxic"},
      {"measurement": "MIC", "setting": "[1]", "result": 0.06, "unit": "µg/mL"},
      {"measurement": "log10cfu", "setting": "[2]", "result": 3.1},
      {"measurement": "log10cfu", "setting": "[3]", "result": 3.5},
      {"measurement": "MIC", "setting": "[4]", "result": 0.13, "unit": "µg/mL"},
      {"measurement": "MIC", "setting": "[5]", "result": 0.06, "unit": "µg/mL"},
      {"measurement": "MIC", "setting": "[6]", "result": 0.06, "unit": "µg/mL"},
      {"measurement": "MIC", "setting": "[7]", "result": 0.13, "unit": "µg/mL"},
      {"measurement": "MIC", "setting": "[8]", "result": 0.06, "unit": "µg/mL"},
      {"measurement": "MIC", "setting": "[9]", "result": 0.06, "unit": "µg/mL"},
      {"measurement": "MIC", "setting": "[10]", "result": 0.06, "unit": "µg/mL"},
      {"measurement": "MIC", "setting": "[11]", "result": 0.25, "unit": "µg/mL"},
      {"measurement": "MIC", "setting": "[12]", "result": 0.015, "unit": "µg/mL"},
      {"measurement": "MIC", "setting": "[13]", "result": 0.13, "unit": "µg/mL"},
      {"measurement": "MIC", "setting": "[14]", "result": 0.06, "unit": "µg/mL"}
    ]},
    {"smiles": "Cc1ncc([N+](=O)[O-])n1CCO", "note": "[METRONIDAZOLE]", "values": [
      {"measurement": "log10cfu", "setting": "[2]", "result": 3.2},
      {"measurement": "log10cfu", "setting": "[3]", "result": 2.8}
    ]}
  ]
}
